Source: patent US6486153B1, “Phenylindole derivatives as 5-HT2A receptor ligands” (Merck Sharp & Dohme Ltd., priority 1997, dated 2002)
Counter-ions that a name gives are not always drawn.

target: human dopamine D2 receptor (Homo sapiens, UniProt P14416); conditions: cited from earlier work
Sequence (P14416 whole entry): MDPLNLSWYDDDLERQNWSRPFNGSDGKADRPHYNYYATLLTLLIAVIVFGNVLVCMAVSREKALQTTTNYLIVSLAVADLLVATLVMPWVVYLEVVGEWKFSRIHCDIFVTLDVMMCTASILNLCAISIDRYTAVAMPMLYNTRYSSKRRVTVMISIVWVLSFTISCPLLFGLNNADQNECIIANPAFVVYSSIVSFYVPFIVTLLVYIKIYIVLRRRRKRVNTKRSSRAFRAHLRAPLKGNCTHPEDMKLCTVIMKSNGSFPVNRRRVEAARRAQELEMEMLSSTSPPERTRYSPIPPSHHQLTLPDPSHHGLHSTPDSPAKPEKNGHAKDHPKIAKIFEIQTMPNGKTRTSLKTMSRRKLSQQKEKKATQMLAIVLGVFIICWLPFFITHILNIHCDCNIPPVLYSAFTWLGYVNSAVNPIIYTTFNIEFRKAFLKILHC

| SMILES | activity at the human dopamine D2 receptor |
| --- | --- |
| COc1cccc(C(O)C2CCN(CCc3ccc(F)cc3)CC2)c1OC (stereo not drawn) [MDL-100,907, (+)-α-(2,3-dimethoxyphenyl)-1-[2-(4-fluorophenyl)ethyl]-4-piperidinemethanol] | essentially devoid of activity |

tested on: not given; conditions: not given

| SMILES | melting point |
| --- | --- |
| COc1cccc2[nH]c(-c3ccccc3)c(CCN3CCCCC3)c12 | 260 to 262 °C |
| Brc1cccc2c(CCN3CCCCC3)c(-c3ccccc3)[nH]c12 (as salt: oxalate) | 206 to 207 °C |
| Clc1cccc2c(CCN3CCCCC3)c(-c3ccccc3)[nH]c12 (as salt: oxalate) | 178 to 179 °C |
| Brc1cccc2[nH]c(-c3ccccc3)c(CCN3CCCCC3)c12 (as salt: oxalate) | > 230 °C |
| Cc1cccc2c(CCN3CCCCC3)c(-c3ccccc3)[nH]c12 (as salt: oxalate) | 159 to 161 °C |
| Fc1cc(F)c2[nH]c(-c3ccccc3)c(CCN3CCCCC3)c2c1 (as salt: oxalate) | 185 to 187 °C |
| c1ccc(-c2ccc3c(CCN4CCCCC4)c(-c4ccccc4)[nH]c3c2)cc1 (as salt: oxalate) | 129 to 131 °C |
| COc1cccc2c(CCN3CCCCC3)c(-c3ccccc3)[nH]c12 (as salt: oxalate) | 203 to 205 °C |
| CC(Cc1c(-c2ccccc2)[nH]c2ccccc12)N1CCCCC1 (centres unmarked) (as salt: oxalate) | 240 °C |

Other lines, results leading:

| melting point | SMILES |
| --- | --- |
| 121 to 122 °C | Brc1ccc2[nH]c(-c3ccccc3)c(CCN3CCCCC3)c2c1 (as salt: oxalate) |
| 163 to 164 °C | Cc1ccc2[nH]c(-c3ccccc3)c(CCN3CCCCC3)c2c1 (as salt: oxalate) |
| 214 to 215 °C | Fc1ccc2c(CCN3CCCCC3)c(-c3ccccc3)[nH]c2c1 (as salt: oxalate) |
| > 230 °C | Brc1ccc2c(CCN3CCCCC3)c(-c3ccccc3)[nH]c2c1 (as salt: oxalate) |
| 141 to 143 °C | Fc1ccc2[nH]c(-c3ccccc3)c(CCN3CCCCC3)c2c1 (as salt: trifluoroacetic acid salt) |

tested on: schizophrenic patients; conditions: multicentre, placebo-controlled study; cited from earlier work

| SMILES | antipsychotic efficacy in clinical study | neurological adverse effects in clinical study |
| --- | --- | --- |
| COc1cccc(C(O)C2CCN(CCc3ccc(F)cc3)CC2)c1OC (stereo not drawn) [MDL-100,907, (+)-α-(2,3-dimethoxyphenyl)-1-[2-(4-fluorophenyl)ethyl]-4-piperidinemethanol] | demonstrated efficacy | no neurological adverse effects |
